# Measurements published in patent US20060063782A1, “3-Hetero arylmethoxy ! pyridines and their analogues as p38 map kinase inhibitors” (priority 2002, published 2006).
# Molecular target: p38 MAP kinase (Homo sapiens, UniProt Q16539)
# Test: p38 MAP Kinase Assay (33P incorporation into myelin basic protein, filter plate)
# Assay type: biochemical
# Settings: Table 2; MKK6-activated p38, MBP substrate, 50 minutes
# Method: The activated p38 is then diluted 1:6 with assay buffer, and 20 μl mixed with 25 μl of MBP mix (300 μl 10×strength assay buffer, 300 μl of 10 mM DTT & 10 mM sodium orthovanadate, 1.7 ml H2O, 50 μCi γ^33P-ATP, 200 μl of myelin basic protein (MBP) (5 mg/ml)) and added to 96 well plates along with 5 μl of various dilutions of the test compound in DMSO (up to 10%). The reaction is allowed to proceed for 50 minutes before being stopped with an excess of ortho-phosphoric acid (30 μl at 2%).
# γ^33P-ATP which remains unincorporated into the myelin basic protein is separated from phosphorylated MBP on a Millipore MAPH filter plate. The wells of the MAPH plate are wetted with 0.5% orthophosphoric acid, and then the results of the reaction are filtered with a Millipore vacuum filtration unit through the wells. Following filtration, the residue is washed twice with 200 μl of 0.5% orthophosphoric acid. Once the filters have dried, 25 μl of Microscint 20 scintillant is added, and then counted on a Packard Topcount for 30 seconds.
# p38 MAP kinase, sequence (Q16539 whole entry): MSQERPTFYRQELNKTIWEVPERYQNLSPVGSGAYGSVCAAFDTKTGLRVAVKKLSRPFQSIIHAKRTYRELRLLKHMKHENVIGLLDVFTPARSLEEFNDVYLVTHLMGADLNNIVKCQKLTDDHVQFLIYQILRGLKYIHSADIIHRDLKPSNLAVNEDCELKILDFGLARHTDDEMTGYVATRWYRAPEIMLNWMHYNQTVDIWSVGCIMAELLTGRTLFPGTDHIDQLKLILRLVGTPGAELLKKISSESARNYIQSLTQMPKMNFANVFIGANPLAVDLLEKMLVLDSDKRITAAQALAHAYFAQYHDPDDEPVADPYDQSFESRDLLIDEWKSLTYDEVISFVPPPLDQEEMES
row,IC50 [µM],Structure (SMILES)
1,< 2,"O=C(Nc1ccc(F)c(COc2cnccn2)c1)c1nnc(-c2ccccc2)o1 [Compound 126, 5-Phenyl-[1,3,4]oxadiazole-2-carboxylic acid [4-fluoro-3-(pyrazin-2-yloxymethyl)-phenyl]-amide]"
2,< 2,"CC(C)(C)c1cc(NC(=O)Nc2ccc(F)c(COc3cnccn3)c2)n(-c2ccc(Cl)cc2)n1 [Compound 127, 1-[5-tert-Butyl-2-(4-chloro-phenyl)-2H-pyrazol-3-yl]-3-[4-fluoro-3-(pyrazin-2-yloxymethyl)-phenyl]-urea]"
3,< 2,"O=C(Nc1ccc(F)c(COc2cnccn2)c1)Nc1cc(-c2ccc(Cl)cc2)nn1-c1ccccc1 [Compound 128, 1-[5-(4-Chloro-phenyl)-2-phenyl-2H-pyrazol-3-yl]-3-[4-fluoro-3-(pyrazin-2-yloxymethyl)-phenyl]-urea]"
4,< 20,CC(C)(C)n1nc(-c2ccccc2)cc1NC(=O)Nc1ccc(F)c(COc2cnccn2)c1 [Compound 129]
5,< 2,"Cc1ccc(-n2nc(C(C)(C)C)cc2NC(=O)Nc2ccc(F)c(COc3cnccn3)c2)cc1 [Compound 130, 1-(5-tert-Butyl-2-p-tolyl-2H-pyrazol-3-yl)-3-[4-fluoro-3-(pyrazin-2-yloxymethyl)-phenyl]-urea]"
6,< 20,"O=C(Nc1ccc(F)c(COc2cnccn2)c1)c1ccc2ccccc2c1 [Compound 131, Naphthalene-2-carboxylic acid [4-fluoro-3-(pyrazin-2-yloxymethyl)-phenyl]-amide]"
7,< 2,"O=C(Nc1ccc(F)c(COc2cnccn2)c1)Nc1cc(-c2ccc(Cl)cc2)nn1-c1ccc(F)cc1 [Compound 132, 1-[5-(4-Chloro-phenyl)-2-(4-fluoro-phenyl)-2H-pyrazol-3-yl]-3-[4-fluoro-3-(pyrazin-2-yloxymethyl)-phenyl]-urea]"
8,< 200,"O=C(Nc1ccc(F)c(COc2cnccn2)c1)c1ccc(-c2ccccc2)cc1 [Compound 133, Biphenyl-4-carboxylic acid [4-fluoro-3-(pyrazin-2-yloxymethyl)-phenyl]-amide]"
9,< 2,"O=C(Nc1ccc(F)c(COc2cnccn2)c1)Nc1cc(-c2ccccc2)nn1-c1ccccc1 [Compound 134, 1-(2,5-Diphenyl-2H-pyrazol-3-yl)-3-[4-fluoro-3-(pyrazin-2-yloxymethyl)-phenyl]-urea]"
10,< 20,"CC(C)(C)c1cc(C(=O)Nc2ccc(F)c(COc3cnccn3)c2)n(Cc2ccccc2)n1 [Compound 135, 2-Benzyl-5-tert-butyl-2H-pyrazole-3-carboxylic acid [4-fluoro-3-(pyrazin-2-yloxymethyl)-phenyl]-amide]"
11,< 20,"CC(C)(C)c1cc(C(=O)Nc2ccc(F)c(COc3cnccn3)c2)n(Cc2ccc(F)cc2)n1 [Compound 136, 5-tert-Butyl-2-(4-fluoro-benzyl)-2H-pyrazole-3-carboxylic acid [4-fluoro-3-(pyrazin-2-yloxymethyl)-phenyl]-amide]"
12,< 2,"CC(CO)(CO)NC(=O)c1cnc(OCc2c(Cl)cccc2Cl)cn1 [Compound 137, 5-(2,6-Dichloro-benzyloxy)-pyrazine-2-carboxylic acid (2-hydroxy-1-hydroxymethyl-1-methyl-ethyl)-amide]"
13,< 1000,"NS(=O)(=O)CCNC(=O)c1cnc(OCc2c(Cl)cccc2Cl)cn1 [Compound 138, 5-(2,6-dichloro-benzyloxy)-pyrazine-2-carboxylic acid (2-sulfamoyl-ethyl)-amide]"
14,< 20,"CC(C)(Cc1ccncc1)NC(=O)c1cnc(OCc2c(Cl)cccc2Cl)cn1 [Compound 139, 5-(2,6-Dichloro-benzyloxy)-pyrazine-2-carboxylic acid (1,1-dimethyl-2-pyridin-4-yl-ethyl)-amide]"
15,< 2,"O=C(Nc1ccc(F)c(COc2cnccn2)c1)Nc1nnc(C2CCCO2)s1 (centres unmarked) [Compound 140, 1-[4-Fluoro-3-(pyrazin-2-yloxymethyl)-phenyl]-3-[5-(tetrahydro-furan-2-yl)-[1,3,4]thiadiazol-2-yl]-urea]"
16,< 20,"Clc1cccc(Cl)c1COc1cnc(NCc2ccccc2)cn1 [Compound 141, Benzyl-[5-(2,6-dichloro-benzyloxy)-pyrazin-2-yl]-amine]"
17,< 200,CC(C)(C)c1ccc2[nH]cc(CC(=O)Nc3ccc(F)c(COc4cnccn4)c3)c2c1 [Compound 143]
18,< 2,"Cc1nc2sccn2c1C(=O)Nc1ccc(F)c(COc2cnccn2)c1 [Compound 144, 6-Methyl-imidazo[2,1-b]thiazole-5-carboxylic acid [4-fluoro-3-(pyrazin-2-yloxymethyl)-phenyl]-amide]"
19,< 200,C=CS(=O)(=O)Nc1cnc(OCc2c(Cl)cccc2Cl)cn1 [Compound 145]

row,IC50 [µM],Structure (SMILES)
1,< 2,"CC(C)(C)c1cc(C(=O)Nc2ccc(F)c(COc3cnccn3)c2)cc(C(C)(C)C)c1 [Compound 146, 3,5-Di-tert-butyl-N-[4-fluoro-3-(pyrazin-2-yloxymethyl)-phenyl]-benzamide]"
2,< 20,"O=C(Nc1ccc(F)c(COc2cnccn2)c1)c1ccc(=O)n(Cc2ccccc2)c1 [Compound 147, 1-Benzyl-6-oxo-1,6-dihydro-pyridine-3-carboxylic acid [4-fluoro-3-(pyrazin-2-yloxymethyl)-phenyl]-amide]"
3,< 200,"CNc1cnc(OCc2c(Cl)cccc2Cl)cn1 [Compound 148, [5-(2,6-Dichloro-benzyloxy)-pyrazin-2-yl]-methyl-amine]"
4,< 200,"CSc1nnc(NC(=O)Nc2ccc(F)c(COc3cnccn3)c2)s1 [Compound 149, 1-[4-Fluoro-3-(pyrazin-2-yloxymethyl)-phenyl]-3-(5-methylsulfanyl-[1,3,4]thiadiazol-2-yl)-urea]"
5,< 2,"O=C(Nc1ccc(F)c(COc2cnccn2)c1)c1cc(N2CCOCC2)nc(N2CCOCC2)n1 [Compound 150, 2,6-Di-morpholin-4-yl-pyrimidine-4-carboxylic acid [4-fluoro-3-(pyrazin-2-yloxymethyl)-phenyl]-amide]"
6,< 2,"Cc1nc(-c2cccc(C(=O)Nc3ccc(F)c(COc4cnccn4)c3)c2)cs1 [Compound 151, N-[4-Fluoro-3-(pyrazin-2-yloxymethyl)-phenyl]-3-(2-methyl-thiazol-4-yl)-benzamide]"
7,< 200,"Clc1cccc(Cl)c1COc1cnc(N2CCOCC2)cn1 [Compound 152, 4-[5-(2,6-Dichloro-benzyloxy)-pyrazin-2-yl]-morpholine]"
8,< 2,"CC(C)(C)c1cc(NC(=O)Nc2ccc(F)c(COc3cnccn3)c2)n(Cc2ccccc2)n1 [Compound 153, 1-(2-Benzyl-5-tert-butyl-2H-pyrazol-3-yl)-3-[4-fluoro-3-(pyrazin-2-yloxymethyl)-phenyl]-urea]"
9,< 20,"CC(Nc1cnc(OCc2c(Cl)cccc2Cl)cn1)c1ccccc1 (centres unmarked) [Compound 154, [5-(2,6-Dichloro-benzyloxy)-pyrazin-2-yl]-(1-phenyl-ethyl)-amine]"
10,< 20,"CC(C)(C)c1cc(NC(=O)Nc2ccc(F)c(COc3cnccn3)c2)n(-c2nc3ccccc3s2)n1 [Compound 155, 1-(2-Benzothiazol-2-yl-5-tert-butyl-2H-pyrazol-3-yl)-3-[4-fluoro-3-(pyrazin-2-yloxymethyl)-phenyl]-urea]"
11,< 2,"CC(C)(C)c1cc(NC(=O)Nc2ccc(F)c(COc3cnccn3)c2)n(-c2ccc(Cl)nn2)n1 [Compound 156, 1-[5-tert-Butyl-2-(6-chloro-pyridazin-3-yl)-2H-pyrazol-3-yl]-3-[4-fluoro-3-(pyrazin-2-yloxymethyl)-phenyl]-urea]"
12,< 2,"Cc1cc(-n2nc(C(C)(C)C)cc2NC(=O)Nc2ccc(F)c(COc3cnccn3)c2)nc(C)n1 [Compound 157, 1-[5-tert-Butyl-2-(2,6-dimethyl-pyrimidin-4-yl)-2H-pyrazol-3-yl]-3-[4-fluoro-3-(pyrazin-2-yloxymethyl)-phenyl]-urea]"
13,< 200,"OCCNc1cnc(OCc2c(Cl)cccc2Cl)cn1 [Compound 158, 2-[5-(2,6-Dichloro-benzyloxy)-pyrazin-2-ylamino]-ethanol]"
14,< 1000,"C[S+]([O-])c1nnc(NC(=O)Nc2ccc(F)c(COc3cnccn3)c2)s1 (centres unmarked) [Compound 159, 1-[4-Fluoro-3-(pyrazin-2-yloxymethyl)-phenyl]-3-(5-methanesulfinyl-[1,3,4]thiadiazol-2-yl)-urea]"
15,< 2,"CC(C)(C)c1cc(NC(=O)Nc2ccc(F)c(COc3cnccn3)c2)n(-c2ccncc2)n1 [Compound 160, 1-(5-tert-Butyl-2-pyridin-4-yl-2H-pyrazol-3-yl)-3-[4-fluoro-3-(pyrazin-2-yloxymethyl)-phenyl]-urea]"
16,< 2,"O=C(Nc1ccc(F)c(COc2cnccn2)c1)Nc1cc(C2CCCO2)nn1-c1ccc(F)cc1 (centres unmarked) [Compound 161, 1-[2-(4-Fluoro-phenyl)-5-(tetrahydro-furan-2-yl)-2H-pyrazol-3-yl]-3-[4-fluoro-3-(pyrazin-2-yloxymethyl)-phenyl]-urea]"
17,< 1000,CN1CCCC(CNC(=O)c2cnc(OCc3c(Cl)cccc3Cl)cn2)C1 (centres unmarked) [Compound 162]
18,< 2,"CC(C)(C)c1cc(NC(=O)Nc2ccc(F)c(COc3cnccn3)c2)n(-c2ccc(S(C)(=O)=O)cc2)n1 [Compound 163, 1-[5-tert-Butyl-2-(4-methanesulfonyl-phenyl)-2H-pyrazol-3-yl]-3-[4-fluoro-3-(pyrazin-2-yloxymethyl)-phenyl]-urea]"

row,Structure (SMILES),IC50 [µM]
1,CC(C)(C)c1cc(NC(=O)Oc2cccc(COc3cnccn3)c2)n(-c2ccccc2)n1 [Compound 142],< 200
